Source: ChEMBL document CHEMBL4000191, “Antileishmanial evaluation of clubbed bis(indolyl)-pyridine derivatives: One-pot synthesis, in vitro biological evaluations and in silico ADME prediction” (Bioorg Med Chem Lett, 2017)
≈ marks a conversion by molar mass, not a printed value.

What was measured:
Staphylococcus aureus = test: Antibacterial activity against Staphylococcus aureus NCIM 2901 by standard agar method; assay type: functional
Leishmania donovani [1] = test: Antileishmanial activity against Leishmania donovani NHOM/IN/80/DD8 promastigotes after 72 hrs by MTT assay; assay type: functional; settings: NHOM/IN/80/DD8, 72 h
Bacillus subtilis = test: Antibacterial activity against Bacillus subtilis NCIM 2063 by standard agar method; assay type: functional
Pseudomonas aeruginosa = test: Antibacterial activity against Pseudomonas aeruginosa NCIM 2036 by standard agar method; assay type: functional
Escherichia coli = test: Antibacterial activity against Escherichia coli NCIM 2256 by standard agar method; assay type: functional
HeLa = test: Cytotoxic activity against human HeLa cells up to 300 ug/mL after 72 hrs by MTT assay; assay type: cell-based
Leishmania chagasi = test: Antileishmanial activity against Leishmania donovani chagasi MHOM/BR/74/PP75 promastigotes after 72 hrs by phase contrast microscopic method; assay type: functional; settings: MHOM/BR/74/PP75, 72 h
Leishmania donovani [2] = test: Antileishmanial activity against Leishmania donovani; assay type: functional

Structure (SMILES)	MIC (Staphylococcus aureus)	MIC (Bacillus subtilis)	MIC (Pseudomonas aeruginosa)	MIC (Escherichia coli)	IC50 (Leishmania chagasi)	IC50 (Leishmania donovani [2])	IC50 (Leishmania donovani [1])	Activity (HeLa)
Clc1ccc(-c2cc(-c3c[nH]c4ccccc34)nc(-c3c[nH]c4ccccc34)c2)cc1	183 µg/mL (≈ 435 µM)	77.2 µg/mL (≈ 184 µM)	115 µg/mL (≈ 275 µM)	90.5 µg/mL (≈ 216 µM)	–	–	166 µM	–
COc1cc(-c2cc(-c3c[nH]c4ccccc34)nc(-c3c[nH]c4ccccc34)c2)cc(OC)c1OC	179 µg/mL (≈ 377 µM)	79.9 µg/mL (≈ 168 µM)	197 µg/mL (≈ 414 µM)	192 µg/mL (≈ 403 µM)	–	–	136 µM	–
COc1ccc(-c2cc(-c3c[nH]c4ccccc34)nc(-c3c[nH]c4ccccc34)c2)cc1OC	194 µg/mL (≈ 436 µM)	55.4 µg/mL (≈ 124 µM)	180 µg/mL (≈ 404 µM)	191 µg/mL (≈ 428 µM)	–	–	192 µM	–
Oc1ccc(-c2cc(-c3c[nH]c4ccccc34)nc(-c3c[nH]c4ccccc34)c2)cc1O	191 µg/mL (≈ 458 µM)	121 µg/mL (≈ 291 µM)	224 µg/mL (≈ 535 µM)	158 µg/mL (≈ 379 µM)	–	–	287 µM	–
COC(=O)[C@@H]1C[C@@]23CCCN4CC[C@@]5(c6ccccc6N(C(=O)OC)[C@]15CC2)[C@H]43	–	–	–	–	60.9 µM	–	–	–
CN(C)c1ccc(-c2cc(-c3c[nH]c4ccccc34)nc(-c3c[nH]c4ccccc34)c2)cc1	229 µg/mL (≈ 534 µM)	103 µg/mL (≈ 240 µM)	149 µg/mL (≈ 349 µM)	95.9 µg/mL (≈ 224 µM)	–	–	112 µM	–
COc1cc(-c2cc(-c3c[nH]c4ccccc34)nc(-c3c[nH]c4ccccc34)c2)ccc1O	221 µg/mL (≈ 511 µM)	95.7 µg/mL (≈ 222 µM)	165 µg/mL (≈ 383 µM)	129 µg/mL (≈ 300 µM)	–	–	169 µM	–
CC1(C)S[C@@H]2[C@H](NC(=O)[C@H](N)c3ccccc3)C(=O)N2[C@H]1C(=O)O [AMPICILLIN]	250 µg/mL (≈ 715 µM)	250 µg/mL (≈ 715 µM)	100 µg/mL (≈ 286 µM)	100 µg/mL (≈ 286 µM)	–	–	–	–
O=C(O)c1cn(C2CC2)c2cc(N3CCNCC3)c(F)cc2c1=O [CIPROFLOXACIN]	–	–	50 µg/mL (≈ 151 µM)	25 µg/mL (≈ 75.4 µM)	–	–	–	–
C[n+]1c2ccccc2cc2[n-]c3ccccc3c21 [CRYPTOLEPINE]	–	–	–	–	–	1.6 µM	–	–

More lines, main results first:

MIC (Staphylococcus aureus)	MIC (Bacillus subtilis)	MIC (Pseudomonas aeruginosa)	MIC (Escherichia coli)	IC50 (Leishmania chagasi)	IC50 (Leishmania donovani [2])	Structure (SMILES)	IC50 (Leishmania donovani [1])	Activity (HeLa)
129 µg/mL (≈ 300 µM)	70.4 µg/mL (≈ 164 µM)	122 µg/mL (≈ 284 µM)	71.5 µg/mL (≈ 166 µM)	–	–	O=C(O)c1ccccc1-c1cc(-c2c[nH]c3ccccc23)nc(-c2c[nH]c3ccccc23)c1	118 µM	–
158 µg/mL (≈ 410 µM)	89.6 µg/mL (≈ 232 µM)	149 µg/mL (≈ 387 µM)	55.4 µg/mL (≈ 144 µM)	–	–	c1ccc(-c2cc(-c3c[nH]c4ccccc34)nc(-c3c[nH]c4ccccc34)c2)cc1	142 µM	–
165 µg/mL (≈ 398 µM)	81.5 µg/mL (≈ 196 µM)	120 µg/mL (≈ 288 µM)	46.6 µg/mL (≈ 112 µM)	–	–	COc1ccc(-c2cc(-c3c[nH]c4ccccc34)nc(-c3c[nH]c4ccccc34)c2)cc1	99.5 µM	Non-Toxic
178 µg/mL (≈ 391 µM)	96.5 µg/mL (≈ 212 µM)	175 µg/mL (≈ 386 µM)	87.5 µg/mL (≈ 193 µM)	–	–	Clc1cccc(Cl)c1-c1cc(-c2c[nH]c3ccccc23)nc(-c2c[nH]c3ccccc23)c1	102 µM	–
158 µg/mL (≈ 356 µM)	79.5 µg/mL (≈ 178 µM)	182 µg/mL (≈ 408 µM)	133 µg/mL (≈ 299 µM)	–	–	COc1ccc(OC)c(-c2cc(-c3c[nH]c4ccccc34)nc(-c3c[nH]c4ccccc34)c2)c1	260 µM	–
123 µg/mL (≈ 276 µM)	88.7 µg/mL (≈ 199 µM)	188 µg/mL (≈ 423 µM)	52.2 µg/mL (≈ 117 µM)	–	–	COc1ccc(-c2cc(-c3c[nH]c4ccccc34)nc(-c3c[nH]c4ccccc34)c2)c(OC)c1	600 µM	–
166 µg/mL (≈ 394 µM)	64.8 µg/mL (≈ 154 µM)	150 µg/mL (≈ 358 µM)	41.4 µg/mL (≈ 98.5 µM)	–	–	Clc1ccccc1-c1cc(-c2c[nH]c3ccccc23)nc(-c2c[nH]c3ccccc23)c1	123 µM	Non-Toxic
